# From US12286442B2, “Methods and materials for increasing transcription factor eb polypeptide levels” (University of Pittsburgh—Of the Commonwealth System of …, priority 2019, dated 2025)
# Tested on: TFEB
# Assay: High content screen measuring TFEB nuclear accumulation (TFEB nuclear/cytosol ratio) in BEAS-2B cells stably expressing TFEB-EGFP
# Type: cell-based, human
# Settings: 18 hours incubation
# Method: FIG. 3. High content screen assay (384 well) measuring TFEB nuclear accumulation. Approximately 2500 primary and immortalized human bronchial epithelial cells (BEAS-2B) stably expressing TFEB-EGFP in 25 μL of HITEs media with 10% FBS were dispensed into 384 well plate (Black with glass bottom) and incubated for 8 hours. Compound serial dilution (DMEM low glucose media with 2% FBS, 25 μL volume) were prepared using a robotic liquid hander. Compound solutions were then added to the cell plate and incubated for 18 hours. Cells were then fixed with 4% PFA followed by DAPI staining. TFEB localization was imaged on the GFP channel along with the DAPI signal using a Cytation 5 high content imager. Images were processed through Biotek Gen5 software; specifically, the DAPI signal was used as the primary mask to quantify the nuclear TFEB-GFP signal. The cytosolic TFEB-GFP signal was quantified through expanding the primary mask. The TFEB nuclear/cytosol ratios were calculated from nuclear TFEB-GFP signal/cytosol TFEB-GFP signal, which determined the compound efficacy. […] Compound activities (μM) were determined by the minimal compound concentration needed to increase TFEB nuclear/cytosol ratio by 25%. Activity: “−” equals >25 μM; “+” equals between 25 μM and >10 μM; “++” equals between ≤10 μM and >1 μM; and “+++” equals […]. N=4.
# (§1) Approximately 2300 primary and immortalized human bronchial epithelial cells (BEAS-2B) stably expressing TFEB-EGFP in 25 μL of HITEs media with 10% FBS were dispensed into 384 well plate (Black with glass bottom) and incubated for 8 hours. Compound serial dilution (DMEM low glucose media with 2% FBS, 25 μL volume) were prepared using a robotic liquid hander. Compound solution were then added to the cell plate and incubated for 18 hours. Cells were then fixed with 4% PFA followed by DAPI staining. TFEB localization was imaged on the GFP channel along with the DAPI signal using a Cytation 5 high content imager. Images were processed through Biotek Gen5 software. Specifically, the DAPI signal was used as the primary mask to quantify the nuclear TFEB-GFP signal. Cytosolic TFEB-GFP signal was quantified through expanding the primary mask. The TFEB nuclear/cytosol ratios were calculated from nuclear TFEB-GFP signal/cytosol TFEB-GFP signal, which determined the compound efficacies.
# Compounds efficacies (μM) were determined by the minimal compound concentration needed to increase TFEB nuclear/cytosol ratio by 25%. Activity: “+” equals >25 μM; “++” equals between ≤25 μM and >1 μM; and “+++” equals ≤1 μM.
# A high-content imaging screen was conducted using Beas2B cells that stably express GFP-TFEB.
row,Structure (SMILES),efficacy (minimal compound concentration needed to increase TFEB nuclear/cytosol ratio by 25%)
1,Cn1cnc2ccc(Nc3nc(-c4ccncc4)nc4ccccc34)cc21 [Compound 141],+++ (“+++” equals ≤1 μM)
2,CCN1CCCC1CNc1nc(-c2ccncc2)nc2ccccc12 (stereo not drawn) [Compound 176],++ (“++” equals between ≤25 μM and >1 μM)
3,c1ccc2c(Nc3ccc4cnoc4c3)nc(-c3cncs3)nc2c1 [Compound 393],++ (“++” equals between ≤25 μM and >1 μM)
4,Cc1cc(F)cc(Nc2nc(-c3ccncc3C)nc3ccccc23)c1 [Compound 53],+ (“+” equals >25 μM)
5,Cc1ccc(Nc2nc(-c3ccccc3Cl)nc3ccccc23)c(C)c1 [Compound 199],+ (“+” equals >25 μM)
6,O=[N+]([O-])c1cccc(-c2nc(Nc3cccc(F)c3)c3ccccc3n2)c1 [Compound 161],+ (“+” equals >25 μM)
7,NS(=O)(=O)CCCNc1nc(-c2ccncc2)nc2ccccc12 [Compound 174],+ (“+” equals >25 μM)
8,COc1cccc2nc(-c3ccncc3)nc(Nc3ccc4nc(C(C)C)sc4c3)c12 [Compound 152],++ (“++” equals between ≤25 μM and >1 μM)
9,CCn1c(=O)c2ccccc2n(CC(=O)Nc2ccccc2)c1=O [Compound 226],+ (“+” equals >25 μM)
10,FC(F)c1nc2ccc(Nc3nc(-c4ccncc4)nc4ccccc34)cc2s1 [Compound 92],++ (“++” equals between ≤25 μM and >1 μM)
11,Fc1ccc2c(Nc3ccc4[nH]ccc4c3)nc(-c3ccncc3)nc2c1 [Compound 112],+++ (“+++” equals ≤1 μM)
12,CCc1nc2ccc(Nc3nc(-c4ccncc4)nc4cc(OC)ccc34)cc2s1 [Compound 150],+++ (“+++” equals ≤1 μM)
13,COc1ccc(-n2c(=O)c3ccc(C(=O)NCc4ccc(C)cc4)cc3n(CC(=O)Nc3cc(C)[nH]n3)c2=O)cc1 [Compound 218],+ (“+” equals >25 μM)
14,CCCc1nc2ccc(Nc3nc(-c4ccncc4)nc4ncccc34)cc2o1 [Compound 363],+++ (“+++” equals ≤1 μM)
15,O=C(Cn1c(=O)n(CC2CCCO2)c(=O)c2ccc(C(=O)NCCc3ccccc3)cc21)Nc1ccc(Br)cc1 (stereo not drawn) [Compound 217],+ (“+” equals >25 μM)
16,CC(=O)Nc1ccc(Nc2nc(-c3ccncc3)cc3ncccc23)cc1O [Compound 401],+++ (“+++” equals ≤1 μM)
17,c1ccc2c(Nc3ccc4cn[nH]c4c3)nc(-c3cncs3)nc2c1 [Compound 389],+ (“+” equals >25 μM)
18,CC(C)c1nc2ccc(Nc3nc(-c4ccncc4)nc4ncccc34)cc2o1 [Compound 375],+++ (“+++” equals ≤1 μM)
19,Fc1cccc(CNc2nc(-c3ccncc3)nc3ccccc23)c1 [Compound 188],+ (“+” equals >25 μM)
20,Cc1cccc(Nc2nc(-c3ccncc3)nc3ccccc23)c1 [Compound 185],+++ (“+++” equals ≤1 μM)
21,Fc1cc(Nc2nc(-c3ccncc3)nc3ccccc23)cc(C(F)(F)F)c1 [Compound 18],+ (“+” equals >25 μM)
22,Cc1ccc(Nc2nc(-c3ccc([N+](=O)[O-])cc3)nc3ccccc23)c(C)c1 [Compound 200],++ (“++” equals between ≤25 μM and >1 μM)
23,O=C(Cc1ccc(-n2c(=O)c3ccccc3n(Cc3ccccc3F)c2=O)cc1)NC1CC1 [Compound 232],+ (“+” equals >25 μM)
24,Cc1cc(C)cc(Nc2nc(-c3ccncc3)nc3ccccc23)c1 [Compound 2],+++ (“+++” equals ≤1 μM)

# Tested on: BEAS-2B cells
# Assay: Toxicity: compound concentration needed to induce greater than 50 percent of cell loss
# Type: cell-based, human
# Settings: 18 hours incubation
# Method: as §1
# Toxicity was determined by determining the compound concentration needed to induce greater than 50 percent of cell loss. For toxicity, cell loss of greater than 50 percent at a concentration that equals or is greater than 25 μM was represented as cell loss of greater than 50 percent at a concentration less than 25 μM and greater than 1 μM was represented as and cell loss of greater than 50 percent at a concentration that equals or is less than 1 μM was represented as “+++.” The assay results for compounds 1-202, 214-248, 332, 333, and 352-402 are shown in Table A.
row,Structure (SMILES),toxicity (compound concentration needed to induce greater than 50 percent of cell loss)
1,Cn1cnc2ccc(Nc3nc(-c4ccncc4)nc4ccccc34)cc21 [Compound 141],++ (cell loss of greater than 50 percent at a concentration less than 25 μM and greater than 1 μM was represented as)
2,CCN1CCCC1CNc1nc(-c2ccncc2)nc2ccccc12 (stereo not drawn) [Compound 176],+ (cell loss of greater than 50 percent at a concentration that equals or is greater than 25 μM was represented as)
3,c1ccc2c(Nc3ccc4cnoc4c3)nc(-c3cncs3)nc2c1 [Compound 393],+ (cell loss of greater than 50 percent at a concentration that equals or is greater than 25 μM was represented as)
4,Cc1cc(F)cc(Nc2nc(-c3ccncc3C)nc3ccccc23)c1 [Compound 53],+ (cell loss of greater than 50 percent at a concentration that equals or is greater than 25 μM was represented as)
5,Cc1ccc(Nc2nc(-c3ccccc3Cl)nc3ccccc23)c(C)c1 [Compound 199],+ (cell loss of greater than 50 percent at a concentration that equals or is greater than 25 μM was represented as)
6,O=[N+]([O-])c1cccc(-c2nc(Nc3cccc(F)c3)c3ccccc3n2)c1 [Compound 161],+ (cell loss of greater than 50 percent at a concentration that equals or is greater than 25 μM was represented as)
7,NS(=O)(=O)CCCNc1nc(-c2ccncc2)nc2ccccc12 [Compound 174],+ (cell loss of greater than 50 percent at a concentration that equals or is greater than 25 μM was represented as)
8,COc1cccc2nc(-c3ccncc3)nc(Nc3ccc4nc(C(C)C)sc4c3)c12 [Compound 152],+ (cell loss of greater than 50 percent at a concentration that equals or is greater than 25 μM was represented as)
9,CCn1c(=O)c2ccccc2n(CC(=O)Nc2ccccc2)c1=O [Compound 226],+ (cell loss of greater than 50 percent at a concentration that equals or is greater than 25 μM was represented as)
10,FC(F)c1nc2ccc(Nc3nc(-c4ccncc4)nc4ccccc34)cc2s1 [Compound 92],+ (cell loss of greater than 50 percent at a concentration that equals or is greater than 25 μM was represented as)
11,Fc1ccc2c(Nc3ccc4[nH]ccc4c3)nc(-c3ccncc3)nc2c1 [Compound 112],+ (cell loss of greater than 50 percent at a concentration that equals or is greater than 25 μM was represented as)
12,CCc1nc2ccc(Nc3nc(-c4ccncc4)nc4cc(OC)ccc34)cc2s1 [Compound 150],++ (cell loss of greater than 50 percent at a concentration less than 25 μM and greater than 1 μM was represented as)
13,COc1ccc(-n2c(=O)c3ccc(C(=O)NCc4ccc(C)cc4)cc3n(CC(=O)Nc3cc(C)[nH]n3)c2=O)cc1 [Compound 218],+ (cell loss of greater than 50 percent at a concentration that equals or is greater than 25 μM was represented as)
14,CCCc1nc2ccc(Nc3nc(-c4ccncc4)nc4ncccc34)cc2o1 [Compound 363],+ (cell loss of greater than 50 percent at a concentration that equals or is greater than 25 μM was represented as)
15,O=C(Cn1c(=O)n(CC2CCCO2)c(=O)c2ccc(C(=O)NCCc3ccccc3)cc21)Nc1ccc(Br)cc1 (stereo not drawn) [Compound 217],+ (cell loss of greater than 50 percent at a concentration that equals or is greater than 25 μM was represented as)
16,CC(=O)Nc1ccc(Nc2nc(-c3ccncc3)cc3ncccc23)cc1O [Compound 401],+ (cell loss of greater than 50 percent at a concentration that equals or is greater than 25 μM was represented as)
17,c1ccc2c(Nc3ccc4cn[nH]c4c3)nc(-c3cncs3)nc2c1 [Compound 389],+ (cell loss of greater than 50 percent at a concentration that equals or is greater than 25 μM was represented as)
18,CC(C)c1nc2ccc(Nc3nc(-c4ccncc4)nc4ncccc34)cc2o1 [Compound 375],+ (cell loss of greater than 50 percent at a concentration that equals or is greater than 25 μM was represented as)
19,Fc1cccc(CNc2nc(-c3ccncc3)nc3ccccc23)c1 [Compound 188],+ (cell loss of greater than 50 percent at a concentration that equals or is greater than 25 μM was represented as)
20,Cc1cccc(Nc2nc(-c3ccncc3)nc3ccccc23)c1 [Compound 185],+ (cell loss of greater than 50 percent at a concentration that equals or is greater than 25 μM was represented as)
21,Fc1cc(Nc2nc(-c3ccncc3)nc3ccccc23)cc(C(F)(F)F)c1 [Compound 18],+ (cell loss of greater than 50 percent at a concentration that equals or is greater than 25 μM was represented as)
22,Cc1ccc(Nc2nc(-c3ccc([N+](=O)[O-])cc3)nc3ccccc23)c(C)c1 [Compound 200],+ (cell loss of greater than 50 percent at a concentration that equals or is greater than 25 μM was represented as)
23,O=C(Cc1ccc(-n2c(=O)c3ccccc3n(Cc3ccccc3F)c2=O)cc1)NC1CC1 [Compound 232],+ (cell loss of greater than 50 percent at a concentration that equals or is greater than 25 μM was represented as)
24,Cc1cc(C)cc(Nc2nc(-c3ccncc3)nc3ccccc23)c1 [Compound 2],+ (cell loss of greater than 50 percent at a concentration that equals or is greater than 25 μM was represented as)
